Reference: PubChem BioAssay AID330 (DTP/NCI, 2004)
“And” between values parts separate entries of the source, which are not always exact repeats. Identical values can stand only once. Inconclusive results and toxic doses are left out.

System: P388 leukemia ip, CD2F1 mice, survival T/C
Assay: NCI In Vivo Anticancer Drug Screen. Data for tumor model P388 Leukemia (intraperitoneal) in CD2F1 (CDF1) mice
Settings: endpoint: median survival time, higher = longer survival
Procedure, shortened: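 Mice carrying the transplanted tumor received test compound or vehicle. Survival was recorded in each group, and the value is the treated-group measurement divided by that of the vehicle-treated control group.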

[1] = dose: 60.0 mg/kg/injection, schedule: Q01DX005 (ip), vehicle: saline with Tween-80
[2] = dose: 50.0 mg/kg/injection, schedule: Q01DX005 (ip), vehicle: Klucel (hydroxypropylcellulose) (HPC)
[3] = dose: 100.0 mg/kg/injection, schedule: Q01DX005 (ip), vehicle: Klucel (hydroxypropylcellulose) (HPC)
[4] = dose: 200.0 mg/kg/injection, schedule: Q01DX005 (ip), vehicle: Klucel (hydroxypropylcellulose) (HPC)
[5] = dose: 12.5 mg/kg/injection, schedule: Q01DX009 (ip), vehicle: saline
[6] = dose: 25.0 mg/kg/injection, schedule: Q01DX009 (ip), vehicle: saline
[7] = dose: 50.0 mg/kg/injection, schedule: Q01DX009 (ip), vehicle: saline
[8] = dose: 100.0 mg/kg/injection, schedule: Q04DX003 (ip), vehicle: saline
[9] = dose: 200.0 mg/kg/injection, schedule: Q04DX003 (ip), vehicle: saline
[10] = dose: 50.0 mg/kg/injection, schedule: Q01DX005 (ip), vehicle: saline with Tween-80
[11] = dose: 100.0 mg/kg/injection, schedule: Q01DX005 (ip), vehicle: saline with Tween-80
[12] = dose: 200.0 mg/kg/injection, schedule: Q01DX005 (ip), vehicle: saline with Tween-80
[13] = dose: 25.0 mg/kg/injection, schedule: Q01DX005 (ip), vehicle: Klucel (hydroxypropylcellulose) (HPC)
[14] = dose: 60.0 mg/kg/injection, schedule: Q01DX005 (ip), vehicle: saline
[15] = dose: 120.0 mg/kg/injection, schedule: Q01DX005 (ip), vehicle: saline
[16] = dose: 50.0 mg/kg/injection, schedule: Q01DX009 (ip), vehicle: saline with Tween-80
[17] = dose: 100.0 mg/kg/injection, schedule: Q01DX009 (ip), vehicle: saline with Tween-80

Structure (SMILES): COC(=O)C(=O)c1c(C2CC2)[nH]c2[nH]n(-c3ccccc3)c(=O)c2c1=O
- T/C [1]: 96 % of control
- T/C (dose: 120.0 mg/kg/injection, schedule: Q01DX005 (ip), vehicle: saline with Tween-80): 91 % of control

Structure (SMILES): CN=C(N)N/N=C(\c1ccc(F)cc1)c1ccccc1Cl
- T/C (dose: 25.0 mg/kg/injection, schedule: Q04DX002 (ip), vehicle: saline with Tween-80): 101 % of control
- T/C (dose: 50.0 mg/kg/injection, schedule: Q04DX002 (ip), vehicle: saline with Tween-80): 100 % of control
- T/C (dose: 100.0 mg/kg/injection, schedule: Q04DX002 (ip), vehicle: saline with Tween-80): 98 % of control

Structure (SMILES): O=C1C=C2CCCCCCCCCC(C1)C2 (stereo unspecified)
- T/C [2]: 99 % of control
- T/C [3]: 99 % of control
- T/C [4]: 89 % of control

Structure (SMILES): O=S(=O)(O)O.[N-]=C(N)/N=C(\[NH-])N.[N-]=C(N)/N=C(\[NH-])N.[N-]=C(N)NC(=[N-])N.[Rh+3]
- T/C [5]: 100 % of control
- T/C [6]: 103 % of control
- T/C [7]: 107 % of control

Structure (SMILES): COc1ccccc1C1C2CCCC(C2O)C(c2ccccc2OC)N1C (stereo unspecified)
- T/C [8]: 99 % of control and 92 % of control
- T/C (dose: 100.0 mg/kg/injection, schedule: Q04DX003 (ip), vehicle: suspension in saline): 100 % of control
- T/C [9]: 98 % of control and 102 % of control
- T/C (dose: 200.0 mg/kg/injection, schedule: Q04DX003 (ip), vehicle: suspension in saline): 107 % of control
- T/C (dose: 400.0 mg/kg/injection, schedule: Q04DX003 (ip), vehicle: saline): 98 % of control and 94 % of control
- T/C (dose: 400.0 mg/kg/injection, schedule: Q04DX003 (ip), vehicle: suspension in saline): 99 % of control

Structure (SMILES): CN1CCN(CC2CCOc3cc(Cl)ccc3C2=O)CC1 (stereo unspecified)
- T/C [8]: 105 % of control
- T/C [9]: 108 % of control

Structure (SMILES): CCCCN(CCCC)C(C)C(O)c1ccc2cc(Br)c3ccccc3c2c1 (stereo unspecified)
- T/C [10]: 100 % of control
- T/C [11]: 98 % of control
- T/C [12]: 91 % of control

Structure (SMILES): COc1c(O)ccc(C2=Cc3ccc(O)cc3OC2)c1OC
- T/C [13]: 99 % of control
- T/C [2]: 98 % of control
- T/C [3]: 109 % of control
- T/C [4]: 106 % of control

Structure (SMILES): CN(C)CC(C(=O)/C=C/c1ccccc1)C(C)(C)C (stereo unspecified)
- T/C [14]: 105 % of control
- T/C [15]: 104 % of control

Structure (SMILES): Cc1nn(C(=S)S)c(C)c1N=Nc1ccc(Br)cc1
- T/C (dose: 100.0 mg/kg/injection, schedule: Q04DX002 (ip), vehicle: Klucel (hydroxypropylcellulose) (HPC)): 113 % of control
- T/C (dose: 200.0 mg/kg/injection, schedule: Q04DX002 (ip), vehicle: Klucel (hydroxypropylcellulose) (HPC)): 90 % of control
- T/C (dose: 400.0 mg/kg/injection, schedule: Q04DX002 (ip), vehicle: Klucel (hydroxypropylcellulose) (HPC)): 112 % of control

Structure (SMILES): OCC[N-]CC[N-]CCO.[Cl][Co][Cl]
- T/C (dose: 6.25 mg/kg/injection, schedule: Q01DX009 (ip), vehicle: saline): 103 % of control
- T/C [5]: 120 % of control
- T/C [6]: 120 % of control
- T/C [7]: 122 % of control
- T/C (dose: 100.0 mg/kg/injection, schedule: Q01DX009 (ip), vehicle: saline): 92 % of control

Structure (SMILES): CO
- T/C (dose: 0.5 % in 0.5 ml injection vol, schedule: Q01DX009 (ip), vehicle: water): 105 % of control
- T/C (dose: 1.0 % in 0.5 ml injection vol, schedule: Q01DX009 (ip), vehicle: water): 102 % of control
- T/C (dose: 2.0 % in 0.5 ml injection vol, schedule: Q01DX009 (ip), vehicle: water): 104 % of control
- T/C (dose: 4.0 % in 0.5 ml injection vol, schedule: Q01DX009 (ip), vehicle: water): 104 % of control
- T/C (dose: 8.0 % in 0.5 ml injection vol, schedule: Q01DX009 (ip), vehicle: water): 100 % of control and 107 % of control
- T/C (dose: 16.0 % in 0.5 ml injection vol, schedule: Q01DX009 (ip), vehicle: water): 94 % of control

Structure (SMILES): CC1(CCl)COP(=O)(NN)OC1 (stereo unspecified)
- T/C [14]: 101 % of control
- T/C [15]: 102 % of control

Structure (SMILES): CN(C)c1ccc(C(O)(Cc2cnc3ccccc3c2)c2ccc(N(C)C)cc2)cc1
- T/C (dose: 100.0 mg/kg/injection, schedule: Q04DX003 (ip), vehicle: saline with Tween-80): 95 % of control
- T/C (dose: 200.0 mg/kg/injection, schedule: Q04DX003 (ip), vehicle: saline with Tween-80): 103 % of control
- T/C (dose: 400.0 mg/kg/injection, schedule: Q04DX003 (ip), vehicle: saline with Tween-80): 99 % of control

Structure (SMILES): CCOC(CNC(C)c1ccc2cc(OC)c(OC)cc2c1)OCC (stereo unspecified)
- T/C (dose: 25.0 mg/kg/injection, schedule: Q01DX009 (ip), vehicle: Klucel (hydroxypropylcellulose) (HPC)): 100 % of control
- T/C (dose: 50.0 mg/kg/injection, schedule: Q01DX009 (ip), vehicle: Klucel (hydroxypropylcellulose) (HPC)): 114 % of control
- T/C (dose: 100.0 mg/kg/injection, schedule: Q01DX009 (ip), vehicle: Klucel (hydroxypropylcellulose) (HPC)): 116 % of control
- T/C (dose: 200.0 mg/kg/injection, schedule: Q01DX009 (ip), vehicle: Klucel (hydroxypropylcellulose) (HPC)): 121 % of control

Structure (SMILES): COc1cccc2c(NCCCNCCCNc3c4ccccc4nc4c(OC)cccc34)c3ccccc3nc12
- T/C (dose: 5.0 mg/kg/injection, schedule: Q01DX009 (ip), vehicle: other): 153 % of control
- T/C (dose: 10.0 mg/kg/injection, schedule: Q01DX009 (ip), vehicle: other): 157 % of control

Structure (SMILES): C1=C(c2ccccc2)C(c2ccc(OCCN3CCCCC3)cc2)Oc2ccccc21 (stereo unspecified)
- T/C [10]: 92 % of control
- T/C [11]: 86 % of control

Structure (SMILES): Cc1nc2scc(-c3ccccc3)n2c(=O)c1CN1CCCCC1
- T/C (dose: 37.5 mg/kg/injection, schedule: Q04DX002 (ip), vehicle: Klucel (hydroxypropylcellulose) (HPC)): 103 % of control
- T/C (dose: 75.0 mg/kg/injection, schedule: Q04DX002 (ip), vehicle: Klucel (hydroxypropylcellulose) (HPC)): 106 % of control
- T/C (dose: 150.0 mg/kg/injection, schedule: Q04DX002 (ip), vehicle: Klucel (hydroxypropylcellulose) (HPC)): 95 % of control

Structure (SMILES): C=C(Cl)C(=NC(C)(C)C)Nc1cccc(Cl)c1
- T/C (dose: 6.25 mg/kg/injection, schedule: Q01DX005 (ip), vehicle: Klucel (hydroxypropylcellulose) (HPC)): 112 % of control
- T/C (dose: 12.5 mg/kg/injection, schedule: Q01DX005 (ip), vehicle: Klucel (hydroxypropylcellulose) (HPC)): 114 % of control
- T/C [13]: 112 % of control
- T/C [2]: 105 % of control
- T/C [3]: 115 % of control
- T/C [4]: 118 % of control

Structure (SMILES): CN(C)CCC[Si]1(C)c2ccccc2CCc2ccccc21
- T/C (dose: 25.0 mg/kg/injection, schedule: Q04DX003 (ip), vehicle: saline): 104 % of control
- T/C (dose: 50.0 mg/kg/injection, schedule: Q04DX003 (ip), vehicle: saline): 105 % of control
- T/C [8]: 109 % of control

Structure (SMILES): CCCCCCCCC1(O)OC(=O)C(C)=C1C (stereo unspecified)
- T/C (dose: 12.5 mg/kg/injection, schedule: Q04DX003 (ip), vehicle: saline with Tween-80): 100 % of control
- T/C (dose: 25.0 mg/kg/injection, schedule: Q04DX003 (ip), vehicle: saline with Tween-80): 100 % of control
- T/C (dose: 50.0 mg/kg/injection, schedule: Q04DX003 (ip), vehicle: saline with Tween-80): 103 % of control

Structure (SMILES): CC(=O)Nc1cccc2c1CCCC2
- T/C [10]: 100 % of control
- T/C [11]: 102 % of control
- T/C [12]: 102 % of control

Structure (SMILES): Cc1cc(Cl)nn2cc(CC(=O)O)nc12
- T/C (dose: 100.0 mg/kg/injection, schedule: Q01DX001 (ip), vehicle: Klucel (hydroxypropylcellulose) (HPC)): 100 % of control
- T/C (dose: 200.0 mg/kg/injection, schedule: Q01DX001 (ip), vehicle: Klucel (hydroxypropylcellulose) (HPC)): 104 % of control
- T/C (dose: 400.0 mg/kg/injection, schedule: Q01DX001 (ip), vehicle: Klucel (hydroxypropylcellulose) (HPC)): 98 % of control

Structure (SMILES): CNC(=O)Oc1ccc(/C=N/Sc2cccc([N+](=O)[O-])c2)cc1
- T/C [16]: 101 % of control
- T/C [17]: 89 % of control

Structure (SMILES): CN1Cc2c(cc(CN3CCCCC3)n2C)C(c2ccc(Br)cc2)C1 (stereo unspecified)
- T/C (dose: 15.0 mg/kg/injection, schedule: Q01DX005 (ip), vehicle: saline with Tween-80): 100 % of control
- T/C (dose: 30.0 mg/kg/injection, schedule: Q01DX005 (ip), vehicle: saline with Tween-80): 100 % of control
- T/C [1]: 101 % of control

Structure (SMILES): CSc1ncc(Br)c(Sc2nc(N)nc3nc[nH]c23)n1
- T/C (dose: 12.5 mg/kg/injection, schedule: Q01DX009 (ip), vehicle: saline with Tween-80): 95 % of control
- T/C (dose: 25.0 mg/kg/injection, schedule: Q01DX009 (ip), vehicle: saline with Tween-80): 86 % of control

Structure (SMILES): BrC1/C=C\CC(Br)/C=C\C1 (stereo unspecified)
- T/C [16]: 110 % of control
- T/C [17]: 117 % of control
- T/C (dose: 200.0 mg/kg/injection, schedule: Q01DX009 (ip), vehicle: saline with Tween-80): 115 % of control
